What all share (type): biochemical
The target of experiment [1] is T1, MMP 1 (Homo sapiens, UniProt P03956).
T1 construct: human recombinant fibroblast collagenase (truncated, mw= 18,828, WAR, Radnor)
T1 sequence (P03956 100-269 limits assumed): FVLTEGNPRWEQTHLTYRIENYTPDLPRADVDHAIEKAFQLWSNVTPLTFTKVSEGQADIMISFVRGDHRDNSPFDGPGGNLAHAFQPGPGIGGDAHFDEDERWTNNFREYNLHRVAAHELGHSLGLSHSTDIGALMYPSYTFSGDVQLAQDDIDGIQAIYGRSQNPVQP
As to the kind of experiment: In Vitro Collagenase Assay. To be noted: human recombinant fibroblast collagenase; for pIC50: read-out: MMP 1 IC 50; for inhibition at 1 µM: read-out: MMP 1 % inhibition at 1 micromolar, 1 micromolar. The procedure:
The assay is based on the cleavage of a peptide substrate ((Dnp-Pro-Cha-Gly-Cys(Me)-His-Ala-Lys(NMa)-NH2), Peptide International, Inc.) by collagenase releasing the fluorescent NMa group which is quantitated on the fluorometer. Dnp quenches the NMa fluorescence in the intact substrate. […] Substrate is dissolved in methanol and stored frozen in 1 mM aliquots. […] For the assay, substrate is dissolved in HCBC buffer to a final concentration of 10 µM and collagenase to a final concentration of 5 nM. Compounds are dissolved in methanol, DMSO, or HCBC. The methanol and DMSO are diluted in HCBC to < 1.0%. Compounds are added to the 96 well plate containing enzyme and the reaction is started by the addition of substrate.
The slope of the line is calculated and represents the reaction rate.
The linearity of the reaction rate is confirmed (r^2 >0.85). The mean (x ± sem) of the control rate is calculated and compared for statistical significance (p <0.05) with drug-treated rates using Dunnett's multiple comparison test.

Experiment [2] deals with T2, MMP 9 (Homo sapiens, UniProt P14780).
T2 construct: from tissue; host or cells: human neutrophils
T2 sequence (P14780 94-707): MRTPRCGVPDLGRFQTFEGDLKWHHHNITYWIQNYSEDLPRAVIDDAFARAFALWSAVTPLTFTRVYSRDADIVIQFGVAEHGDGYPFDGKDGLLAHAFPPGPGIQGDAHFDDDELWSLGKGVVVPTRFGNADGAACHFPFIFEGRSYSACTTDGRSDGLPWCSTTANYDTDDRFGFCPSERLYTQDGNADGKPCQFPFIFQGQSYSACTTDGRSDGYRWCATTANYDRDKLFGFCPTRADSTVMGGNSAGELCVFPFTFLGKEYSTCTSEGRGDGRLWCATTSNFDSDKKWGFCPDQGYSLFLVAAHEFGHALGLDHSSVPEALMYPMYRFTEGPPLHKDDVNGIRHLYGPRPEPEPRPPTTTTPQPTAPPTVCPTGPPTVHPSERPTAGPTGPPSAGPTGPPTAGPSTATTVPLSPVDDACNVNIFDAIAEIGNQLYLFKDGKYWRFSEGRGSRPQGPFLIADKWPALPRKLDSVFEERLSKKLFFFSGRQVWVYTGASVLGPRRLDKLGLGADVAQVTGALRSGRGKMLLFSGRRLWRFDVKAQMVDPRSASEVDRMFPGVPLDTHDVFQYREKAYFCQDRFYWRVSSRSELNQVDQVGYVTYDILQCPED
As to the kind of experiment: In Vitro Gelatinase Assay. To be noted: human neutrophil gelatinase B; for pIC50: read-out: MMP 9 IC 50; for inhibition at 1 µM: read-out: MMP 9 % inhibition at 1 micromolar, 1 micromolar. The procedure: The assay is based on the cleavage of the thiopeptide substrate ((Ac-Pro-Leu-Gly(2 mercapto-4 methyl-pentanoyl)-Leu-Gly-OEt), Bachem Bioscience) by the enzyme, gelatinase, releasing the substrate product which reacts colorimetrically with DTNB ((5,5'-dithio-bis(2-nitro-benzoic acid)). The enzyme activity is measured by the rate of the color increase. The thiopeptide substrate is made up fresh as a 20 mM stock in 100% DMSO and the DTNB is dissolved in 100% DMSO as a 100 mM stock and stored in dark at room temperature. Both the substrate and DTNB are diluted together to 1 mM with substrate buffer (50 mM HEPES pH 7.5, 5 mM CaCl2) before use. […] The increase in OD405 is plotted and the slope of the line is calculated which represents the reaction rate. The linearity of the reaction rate is confirmed (r^2 >0.85). The mean (x ± sem) of the control rate is calculated and compared for statistical significance (p <0.05) with drug-treated rates using Dunnett's multiple comparison test.

Experiment [3] concerns the target MMP 13 (Homo sapiens, UniProt P45452). As to the kind of experiment: MMP 13 inhibition (IC50 / manual assay; method not described). To be noted: for pIC50: read-out: MMP 13 IC 50; for inhibition at 1 µM: read-out: MMP 13 % inhibition at 1 micromolar.
The target of experiment [4] is T3, TACE (Homo sapiens, UniProt P78536).
T3 construct: purchased Immunex
T3 sequence (P78536 215-824): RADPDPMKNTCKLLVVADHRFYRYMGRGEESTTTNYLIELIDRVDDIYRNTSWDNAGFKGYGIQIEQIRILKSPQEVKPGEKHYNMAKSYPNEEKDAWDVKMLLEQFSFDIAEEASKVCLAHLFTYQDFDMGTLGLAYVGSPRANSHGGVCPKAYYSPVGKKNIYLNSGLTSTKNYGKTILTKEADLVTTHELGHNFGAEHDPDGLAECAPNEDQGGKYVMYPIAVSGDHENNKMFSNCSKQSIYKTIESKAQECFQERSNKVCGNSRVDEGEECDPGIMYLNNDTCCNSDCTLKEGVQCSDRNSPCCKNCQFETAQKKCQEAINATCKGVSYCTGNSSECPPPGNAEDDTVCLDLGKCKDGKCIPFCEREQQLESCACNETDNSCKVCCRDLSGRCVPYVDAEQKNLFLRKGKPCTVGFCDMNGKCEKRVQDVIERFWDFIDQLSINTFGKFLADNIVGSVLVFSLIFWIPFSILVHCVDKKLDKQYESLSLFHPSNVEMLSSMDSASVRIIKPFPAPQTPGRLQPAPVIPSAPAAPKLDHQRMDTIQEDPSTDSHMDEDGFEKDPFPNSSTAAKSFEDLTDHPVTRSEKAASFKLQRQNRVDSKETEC
Briefly: Procedure for Measuring TACE Inhibition. To be noted: for pIC50: read-out: TACE IC 50; for inhibition at 1 µM: read-out: TACE % inhibition at 1 micromolar. In outline: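 Single-concentration screen: test compound at 1 µM final, 10-min room-temperature preincubation with 1 µg/mL protease in Tris pH 7.4 buffer containing glycerol. Initial rate from linear fluorescence increase (340/420 nm) over 10 min after adding 100 µM peptidyl substrate; significance versus control rate by Dunnett's test.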

Molecules are shown by their SMILES. pIC50: −log10 of the molar value.

As to `CCCCC[C@H](C(=O)NO)[S@+]([O-])c1ccc(OC)cc1` (stereo in doubt) [Example 81a, 2R*-(4-methoxy-phenyl-S*- sulfinyl)-heptanoic acid hydroxyamide], the pIC50 in experiment [1] is 5.69; in experiment [2], 6.64; in experiment [3], 7.36.

For `CCCCC[C@@H](C(=O)NO)[S@@+]([O-])c1ccc(OC)cc1` (stereo in doubt) [Example 81b, 2S*-(4-methoxy-phenyl-R*- sulfinyl)-heptanoic acid hydroxyamide], the pIC50 in experiment [1] was 5.42; in experiment [2], 6.81; in experiment [3], 7.80; in experiment [4] it was 6.64.

On to `COc1ccc(SC(C(=O)NO)C(C)C)cc1` (stereo not drawn) [Example 4, N-Hydroxy-2-(4-methoxy-phenylsulfanyl)-3-methyl-butyramide], for which the pIC50 in experiment [1] was 6.43. Also, the inhibition (as a rule, the share of the control response that was lost under treatment) at 1 µM in experiment [2] was 22.2%; in experiment [3], 17.1%; in experiment [4], 21%.

Regarding `COc1ccc([S+]([O-])C(C)(CC=C(C)C)C(=O)NO)cc1` (stereo not drawn) [Example 6, 2-(4-Methoxy-benzenesulfinyl)-2,5-dimethyl-hex-4-enoic acid hydroxyamide], the pIC50 in experiment [1] was 6.57; in experiment [2] it was 7.67; in experiment [3], 7.81. Besides, the inhibition at 1 µM in experiment [4] came to 40.4%.

For `COc1ccc([S+]([O-])C(C(=O)NO)C(C)C)cc1` (stereo not drawn) [Example 7, N-Hydroxy-2-(4-methoxy-benzenesulfinyl)-3-methyl-butyramide], the pIC50 in experiment [1] is 6.07; in experiment [2] it was 7.14; in experiment [3], 7.38. Also, in experiment [4], the inhibition at 1 µM is 33%.

In the case of `COc1ccc(S(=O)(=O)C(C)(CC=C(C)C)C(=O)NO)cc1` (stereo not drawn) [Example 13, 2-(4-Methoxy-benzenesulfonyl)-2,5-dimethyl-hex-4-enoic acid hydroxyamide], the pIC50 was 6.62 in experiment [1], 7.96 in experiment [2], 7.85 in experiment [3] and 6.20 in experiment [4].

Turning to `COc1ccc(S(=O)(=O)C(C)(CC=C(C)CCC=C(C)C)C(=O)NO)cc1` (stereo not drawn) [Example 15, 2-(4-methoxy-benzenesulfonyl)-2,5,9-trimethyl-deca-4,8-dienoic acid hydroxyamide], the pIC50 in experiment [1] is 6.55; in experiment [2], 7.77; in experiment [3], 8.40; in experiment [4], 6.86.

In the case of `COc1ccc(S(=O)(=O)C(C)(CC2CCCCC2)C(=O)NO)cc1` (stereo not drawn) [Example 16, 3-Cyclohexyl-N-hydroxy-2-(4-methoxy-benzenesulfonyl)-2-methyl-propionamide], the pIC50 in experiment [1] was 6.49; in experiment [2], 8.05; in experiment [3] it was 7.62; in experiment [4], 6.74.

For `CCCC(Cc1ccc(OCCN2CCCCCC2)cc1)(C(=O)NO)S(=O)(=O)c1ccc(OC)cc1` (stereo not drawn) [Example 19, 2-[4-(2-Azepan-1-yl-ethoxy)-benzyl]-2-(4-methoxy-benzenesulfonyl)-pentanoic acid hydroxyamide], the values for the pIC50 in experiment [1], in experiment [2] and in experiment [3] were 6.35, 7.02 and 8.32, respectively. Also, the inhibition at 1 µM in experiment [4] came out at 33.1%.

Turning to `COc1ccc(S(=O)(=O)C(C)(Cc2cccc(OCCN3CCCCC3)c2)C(=O)NO)cc1` (stereo not drawn) [Example 22, N-Hydroxy-2-(4-methoxy-benzenesulfonyl)-2-methyl-3-[3-(2-piperidin-1-yl-ethoxy)-phenyl]-propionamide], the pIC50 in experiment [1] was 6.66; in experiment [2] it was 8.49; in experiment [3] it was 8.60. In addition, the inhibition at 1 µM in experiment [4] worked out at 30%.

Consider `COc1ccc(S(=O)(=O)C(CC=C(C)C)(Cc2ccc(OCCN3CCOCC3)cc2)C(=O)NO)cc1` (stereo not drawn) [Example 24, 2-(4-Methoxy-benzenesulfonyl)-5-methyl-2-[4-(2-morpholin-4-yl-ethoxy)-benzyl]-hex-4-enoic acid hydroxyamide], for which the pIC50 in experiment [1] is 6.38; in experiment [2], 7.68; in experiment [3], 7.50.

In the case of `COc1ccc(S(=O)(=O)C(C/C=C(\C)CCC=C(C)C)(Cc2ccc(OCCN3CCOCC3)cc2)C(=O)NO)cc1` (stereo not drawn) [Example 26, (4E)-2-(4-Methoxy-benzenesulfonyl)-5,9-dimethyl-2-[4-(2-morpholin-4-yl-ethoxy) - benzyl]-deca-4,8-dienoic acid hydroxyamide], the pIC50 in experiment [1] was 6.52; in experiment [2] it was 8.20; in experiment [3] it was 8.49.

As to `CCCCC(Cc1ccc(OCCN(CC)CC)cc1)(C(=O)NO)S(=O)(=O)c1ccc(OC)cc1` (stereo not drawn) [Example 27, 2-[4-(2-Diethylamino-ethoxy)-benzyl]-2-(4-methoxy-benzenesulfonyl)-hexanoic acid hydroxyamide], the pIC50 in experiment [1] is 6.20; in experiment [2], 6.97; in experiment [3] it was 7.52.

On to `CCN(CC)CCOc1ccc(CC(C)(C(=O)NO)S(=O)(=O)c2ccc(-c3ccco3)cc2)cc1` (stereo not drawn) [Example 32, 3-[4-(2-Diethylamino-ethoxy)-phenyl]-2-(4-furan-2-yl-benzenesulfonyl)-N-hydroxy-2-methyl-propionamide], for which the pIC50 in experiment [1] was 7.86; in experiment [2] it was 8.43; in experiment [3] it was 9.00.

For the compound `CCCC(Cc1ccc(OCCN2CCOCC2)cc1)(C(=O)NO)S(=O)(=O)c1ccc(OC)cc1` (stereo not drawn) [Example 35, 2-(4-Methoxy-benzenesulfonyl)-2-[4-(2-morpholin-4-yl-ethoxy)-benzyl]-pentanoic acid hydroxyamide], the pIC50 in experiment [1] is 6.34; in experiment [2] it was 6.63; in experiment [3] it was 7.32.

Regarding `CCCCCCC(Sc1ccc(OC)cc1)C(=O)NO` (stereo not drawn) [Example 37, 2-(4-Methoxy-benzenesulfanyl)-octanoic acid hydroxyamide], the inhibition at 1 µM worked out at 9% in experiment [1], 31.6% in experiment [2] and 14.3% in experiment [3].

As for `CCCCCCC(Sc1nccn1C)C(=O)NO` (stereo not drawn) [Example 39, 2-(1-methyl-1H-imidazol-2-ylsulfanyl)-octanoic acid hydroxyamide], the figures for the inhibition at 1 µM in experiment [1], in experiment [2] and in experiment [3] were 29.4%, 35.2% and 26.6%, respectively.

Regarding `CC(C(=O)O)S(=O)(=O)CCCCCCCCS(=O)(=O)C(C)C(=O)NO` (stereo not drawn) [Example 49, 2-[8-(1-carboxy-ethanesulfonyl)-octane-1-sulfonyl]-propionic acid hydroxyamide], the inhibition at 1 µM in experiment [1] amounted to 10.1%; in experiment [2] it was 23.7%; in experiment [3], 54.6%.

As for `COc1ccc(S(=O)(=O)C(CCC(C)C)(Cc2cccnc2)C(=O)NO)cc1` (stereo not drawn) [Example 69, 2-(4-Methoxy-benzenesulfonyl)-5-methyl-2-pyridin-3-ylmethyl-hexanoic acid hydroxyamide], the results for the pIC50 in experiment [1] and in experiment [3] were 6.24 and 7.05, respectively. Also, the inhibition at 1 µM in experiment [4] is 41.3%.

In the case of `COc1ccc(S(=O)(=O)C2(C(=O)NO)CCN(C(C)(C)C)CC2)cc1` [Example 92, 1-Tert-butyl-4-(4-methoxy-benzenesulfonyl)-piperidine-4-carboxylic acid hydroxyamide], in experiment [1], the inhibition at 1 µM is 59.6%. The results for the pIC50 in experiment [2] and in experiment [3] were 6.19 and 6.83, respectively.

Consider `COc1ccc(S(=O)(=O)C2(C(=O)NO)CCN(C(C)C)CC2)cc1` [Example 96, 1-Isopropyl-4-(4-methoxy-benzenesulfonyl)-piperidine-4-carboxylic acid hydroxyamide], for which the figures for the pIC50 in experiment [1], in experiment [2] and in experiment [3] were 5.35, 6.43 and 7.47, respectively.
